Measured values from patent publication US20040091517A1, “Use of polyphospate as a tooth erosion inhibitors in acidic compositions” (priority 2000, published 2004).
“And” between values parts separate entries of the source, which are not always exact repeats. Identical values can stand only once.

Assay: in-vitro planometry/profilometry test of enamel erosion by acidic solutions and beverages
Design: species or system human
Procedure: Test solutions were prepared by dissolving the ingredients in water as described in the Table. For test solutions containing sodium polyphosphate, the average chain length (n) of the polyphosphate polymer used was 17. All solutions were prepared to give a pH of 3.0 and a titratable acidity of 0.5% w/v CAMH (citric acid monohydrate). Where calcium was added, the molar ratio of calcium: citric acid used was about 0.08. The erosive effect of the solutions was evaluated using in-vitro planometry tests in which flat dental enamel sections were exposed to test solutions at a temperature of 37° C. for 4 hours. […] Erosive effect was evaluated by physical measurement of the depth of enamel (in microns) lost during the procedure.
A. Solutions were prepared containing approximately equivalent molar concentrations of phosphate groups dissolved in 0.3% w/v citric acid monohydrate (CAMH), pH 3.4. pH was adjusted by the addition of NaOH as required. […] Additionally sodium polyphosphate n≈4, 7, 28 was from Chemische Fabrik Budenheim, Budenheim, Germany, and sodium polyphosphate n≈12, 21, 25 was from Rhodia Ltd. Widnes, Cheshire, UK. Enamel specimens were placed in the solutions with stirring at 37 C for 4 hours and the amount of enamel lost from the surface during that time measured by profilometry as described previously.
The acidulant employed was 0.3% w/v citric acid monohydrate. Citric acid is one of the most commonly employed food acidulants. Adjustment of pH where required was achieved by the addition of NaOH.

For `O=C([O-])[O-].[Ca+2]` [Ca, calcium carbonate], the “4 Hr Enamel Loss” value (Ca 80 ppm alone, no phosphate salt, no gum, 0.5% w/v CAMH, pH 3.0) was 41.1 microns and 80 microns, the “4 Hr Enamel Loss” value (Ca 80 ppm alone, no phosphate salt, 0.3% w/v CAMH, pH 3.4) was 42.8 microns and the “4 Hr Enamel Loss” value (Ca 100 ppm alone, no polyphosphate, 0.3% w/v CAMH, pH 3.2) was 31.5 microns. The “4 Hr Enamel Loss” value (Ca 200 ppm alone, no polyphosphate, 0.3% w/v CAMH, pH 3.2) was 25.2 microns.
For `O=P([O-])([O-])OP(=O)([O-])OP(=O)([O-])[O-].[Na+].[Na+].[Na+].[Na+].[Na+]` [Penta-sodium triphosphate], the “4 Hr Enamel Loss” value (phosphate salt 0.61 g/L, Ca 80 ppm, 0.5% w/v CAMH, pH 3.0, listed as Penta sodium triphosphate, triphosphate) was 20.09 microns, the “4 Hr Enamel Loss” value (phosphate salt 0.61 g/L, Ca 80 ppm, 0.5% w/v CAMH, pH 3.0, listed as sodium tri-phosphate, triphosphate) was “about 20 microns” and the “4 Hr Enamel Loss” value (phosphate salt 0.61 g/L, Ca 80 ppm, 0.5% w/v CAMH, pH 3.0, triphosphate) was 20.1 microns. For the same compound, the “4 Hr Enamel Loss” value (phosphate salt 0.61 g/L, no Ca, 0.3% w/v CAMH, pH 3.4) was 29.6 microns.
With `O=P(O)(O)O` [Sodium phosphate] the “4 Hr Enamel Loss” value (phosphate salt 0.65 g/L, Ca 80 ppm, 0.5% w/v CAMH, pH 3.0) was 33.4 microns and 33.39 microns, the “4 Hr Enamel Loss” value (phosphate salt 0.65 g/L, Ca 80 ppm, 0.5% w/v CAMH, pH 3.0, listed as sodium phosphate) was “about 33 microns” and the “4 Hr Enamel Loss” value (phosphate salt 0.65 g/L, no Ca, 0.3% w/v CAMH, pH 3.4) was 34.05 microns.
For `O=P([O-])([O-])OP(=O)([O-])[O-].[Na+].[Na+].[Na+].[Na+]` [Tetra-sodium pyrophosphate], the “4 Hr Enamel Loss” value (phosphate salt 1.08 g/L, Ca 80 ppm, 0.5% w/v CAMH, pH 3.0) was 28.6 microns, the “4 Hr Enamel Loss” value (phosphate salt 1.08 g/L, Ca 80 ppm, 0.5% w/v CAMH, pH 3.0, listed as Tetra sodium pyrophosphate) was 28.63 microns and the “4 Hr Enamel Loss” value (phosphate salt 1.08 g/L, Ca 80 ppm, 0.5% w/v CAMH, pH 3.0, listed as sodium pyrophosphate) was “about 29 microns”. For the same compound, the “4 Hr Enamel Loss” value (phosphate salt 1.08 g/L, no Ca, 0.3% w/v CAMH, pH 3.4) was 34.9 microns.
